# Test results from ChEMBL document CHEMBL4308866, “Rotenoisin A is a novel anti-adipogenic compound” (Bioorg Med Chem Lett, 2019).
# Calls of active or inactive are those of the source. The calls are words filed in the database; no cut-off is given here.
# What was measured:
# [1] = tested on: 3T3-L1; test: Cytotoxicity against mouse 3T3L1 cells assessed as effect on cell viability up to 1.5 ug/ml after 4 to 8 days by MTT assay; type: cell-based
# [2] = tested on: 3T3-L1; test: Induction of morphological changes in mouse 3T3L1 cells; type: cell-based
# [3] = tested on: 3T3-L1; test: Anti-adipogenic activity in mouse 3T3L1 preadipocytes assessed as inhibition of insulin/dexamethasone/isobutylmethylxanthine induced-cell differentiation treated every 2 days following compound washout for 8 days by Oil-red O staining based assay; type: functional
# [4] = tested on: 3T3-L1; test: Anti-adipogenic activity in mouse 3T3L1 preadipocytes assessed as inhibition of insulin/dexamethasone/isobutylmethylxanthine induced-lipid accumulation treated every 2 days following compound washout for 8 days by Oil-red O staining based assay; type: functional, cell-based
# [5] = tested on: 3T3-L1; test: Anti-adipogenic activity in mouse 3T3L1 adipocytes assessed as inhibition of insulin/dexamethasone/isobutylmethylxanthine induced-triglyceride accumulation at 0.4 ug/ml treated every 2 days following compound washout for 8 days by ELISA relative to control; type: functional
# [6] = tested on: 3T3-L1; test: Anti-adipogenic activity in mouse 3T3L1 adipocytes assessed as inhibition of insulin/dexamethasone/isobutylmethylxanthine induced-triglyceride accumulation at 1.5 ug/ml treated every 2 days following compound washout for 8 days by ELISA relative to control; type: functional
# [7] = molecular target: T1, 5'-AMP-activated protein kinase (Mus musculus) (UniProt Q5EG47+Q8BRK8+Q6PAM0+O54950+Q91WG5+Q9R078+Q8BGM7); test: Activation of AMPK in mouse 3T3L1 adipocytes in DMI differentiation media assessed as decrease in C/EBPbeta mRNA expression after 4 days by RP-PCR analysis; type: cell-based; conditions: 3T3-L1
# [8] = molecular target: T1, 5'-AMP-activated protein kinase (Mus musculus); test: Activation of AMPK in mouse 3T3L1 adipocytes in DMI differentiation media assessed as decrease in C/EBPalpha mRNA expression after 4 days by RP-PCR analysis; type: cell-based; conditions: 3T3-L1
# [9] = molecular target: T1, 5'-AMP-activated protein kinase (Mus musculus); test: Activation of AMPK in mouse 3T3L1 adipocytes in DMI differentiation media assessed as decrease in PPARgamma mRNA expression after 4 days by RP-PCR analysis; type: cell-based; conditions: 3T3-L1
# [10] = molecular target: T1, 5'-AMP-activated protein kinase (Mus musculus); test: Activation of AMPK in mouse 3T3L1 adipocytes in DMI differentiation media assessed as decrease in C/EBPbeta expression after 4 to 8 days by Western blot analysis; type: cell-based; conditions: 3T3-L1
# [11] = molecular target: T1, 5'-AMP-activated protein kinase (Mus musculus); test: Activation of AMPK in mouse 3T3L1 adipocytes in DMI differentiation media assessed as decrease in C/EBPalpha expression after 4 to 8 days by Western blot analysis; type: cell-based; conditions: 3T3-L1
# [12] = molecular target: T1, 5'-AMP-activated protein kinase (Mus musculus); test: Activation of AMPK in mouse 3T3L1 adipocytes in DMI differentiation media assessed as decrease in PPARgamma expression after 4 to 8 days by Western blot analysis; type: cell-based; conditions: 3T3-L1
# [13] = molecular target: T1, 5'-AMP-activated protein kinase (Mus musculus); test: Activation of AMPK in mouse 3T3L1 adipocytes in DMI differentiation media assessed as decrease in aP2 expression after 4 to 8 days by Western blot analysis; type: cell-based; conditions: 3T3-L1
# [14] = molecular target: T1, 5'-AMP-activated protein kinase (Mus musculus); test: Activation of AMPK in mouse 3T3L1 adipocytes in DMI differentiation media assessed as decrease in LPL expression after 4 to 8 days by Western blot analysis; type: cell-based; conditions: 3T3-L1
# [15] = molecular target: T1, 5'-AMP-activated protein kinase (Mus musculus); test: Activation of AMPK in mouse 3T3L1 adipocytes in DMI differentiation media assessed as decrease in FAS expression after 4 to 8 days by Western blot analysis; type: cell-based; conditions: 3T3-L1
# [16] = molecular target: AMP-activated protein kinase, AMPK (Homo sapiens) (UniProt P54646+O43741+P54619+Q9UGJ0+Q9Y478+Q13131+Q9UGI9); test: Activation of AMPK (unknown origin) at 0.4 to 1.5 ug/ml; type: protein-complex assay
# [17] = molecular target: T1, 5'-AMP-activated protein kinase (Mus musculus); test: Activation of AMPK in mouse 3T3L1 adipocytes in DMI differentiation media at 0.4 to 1.5 ug/ml after 8 days by Western blot analysis; type: cell-based; conditions: 3T3-L1
# [18] = molecular target: T1, 5'-AMP-activated protein kinase (Mus musculus); test: Activation of AMPK phosphorylation at […] residue in mouse 3T3L1 adipocytes in DMI differentiation media after 4 to 8 days by Western blot analysis; type: cell-based; conditions: 3T3-L1
# [19] = tested on: 3T3-L1; test: Effect on total AMPK expression in mouse 3T3L1 adipocytes in DMI differentiation media at 0.4 to 1.5 ug/ml after 4 to 8 days by Western blot analysis; type: ADME, cell-based
# [20] = molecular target: T1, 5'-AMP-activated protein kinase (Mus musculus); test: Activation of AMPK in mouse 3T3L1 adipocytes in DMI differentiation media assessed as increase in ACC phosphorylation after 4 to 8 days by Western blot analysis; type: cell-based; conditions: 3T3-L1
# [21] = molecular target: T1, 5'-AMP-activated protein kinase (Mus musculus); test: Activation of AMPK in mouse 3T3L1 adipocytes in DMI differentiation media at 1.5 ug/ml after 24 hrs in presence of AMPK inhibitor compound C by Western blot analysis; type: cell-based; conditions: 3T3-L1
# [22] = molecular target: T1, 5'-AMP-activated protein kinase (Mus musculus); test: Activation of AMPK in mouse 3T3L1 adipocytes in DMI differentiation media assessed as decrease in C/EBPbeta expression at 1.5 ug/ml after 24 hrs in presence of AMPK inhibitor compound C by Western blot analysis; type: cell-based; conditions: 3T3-L1
# [23] = molecular target: T1, 5'-AMP-activated protein kinase (Mus musculus); test: Activation of AMPK in mouse 3T3L1 adipocytes in DMI differentiation media assessed as decrease in C/EBPalpha expression at 1.5 ug/ml after 6 days in presence of AMPK inhibitor compound C by Western blot analysis; type: cell-based; conditions: 3T3-L1
# [24] = molecular target: T1, 5'-AMP-activated protein kinase (Mus musculus); test: Activation of AMPK in mouse 3T3L1 adipocytes in DMI differentiation media assessed as decrease in PPARgamma expression at 1.5 ug/ml after 6 days in presence of AMPK inhibitor compound C by Western blot analysis; type: cell-based; conditions: 3T3-L1
# [25] = molecular target: T1, 5'-AMP-activated protein kinase (Mus musculus); test: Activation of AMPK in mouse 3T3L1 adipocytes in DMI differentiation media assessed as increase in ACC phosphorylation in presence of AMPK inhibitor compound C by Western blot analysis; type: cell-based; conditions: 3T3-L1
# [26] = molecular target: T1, 5'-AMP-activated protein kinase (Mus musculus); test: Activation of AMPK phosphorylation at […] residue in mouse 3T3L1 adipocytes in DMI differentiation media in presence of AMPK inhibitor compound C by Western blot analysis; type: cell-based; conditions: 3T3-L1
smiles,measurement,setting,value
C=C(C)[C@H]1Cc2c(ccc3c2O[C@@H]2COc4cc(OC)c(OC)cc4[C@@H]2[C@@]32CO2)O1 [ROTENOISIN A],Activity,[1],Non-Toxic
same,Activity,[2],Non-Toxic
same,inhibition,[3],Dose-dependent effect
same,inhibition,[4],Dose-dependent effect
same,inhibition at 0.4 µg/mL,[5],23%
same,inhibition at 1.5 µg/mL,[6],57%
same,Activity,[7],Dose-dependent effect
same,Activity,[8],Dose-dependent effect
same,Activity,[9],Dose-dependent effect
same,Activity,[10],Dose-dependent effect
same,Activity,[11],Dose-dependent effect
same,Activity,[12],Dose-dependent effect
same,Activity,[13],Dose-dependent effect
same,Activity,[14],Dose-dependent effect
same,Activity,[15],Dose-dependent effect
same,Activity,[16],inactive
same,Activity,[17],Active
same,Activity,[18],Dose-dependent effect
same,Activity,[19],Non-Toxic
same,Activity,[20],Dose-dependent effect
same,Activity,[21],inactive
same,Activity,[22],inactive
same,Activity,[23],inactive
same,Activity,[24],inactive
same,Activity,[25],inactive
same,Activity,[26],inactive
